Experimental findings from patent publication US10023539B2, “Aryl-cyanoguanidine compounds” (Bayer Pharma Aktiengesellschaft, priority 2014, dated 2018) are described below.

The target in test [1] is T1, SMYD2 (Homo sapiens (Human), UniProt Q9NRG4). The experiment in a line: In Cell Western (ICW) cell-based assay for detection of SMYD2 methylation activity. Particulars: SMYD2 overexpressing KYSE-150 cells, 72 h treatment, p53K370me1 signal; read-out: IC50 [mol/l] (ICW assay).
Excerpt: For the detection of SMYD2 cellular methylation activity an In Cell Western (ICW) assay was established. This assay allows rapid processing of multiple samples for SMYD2 methylation derived immunofluorescence signals, with normalization to cell number via the use of the nucleic acid dye DRAQ5. […] To detect SMYD2-mediated methylation signals in cells, a customized antibody directed against mono-methylated lysine 370 on protein p53 (p53K370me1) was used.
For conducting the ICW assay 5000 SMYD2 overexpressing KYSE-150 cells/well were seeded in 96-well plates (SIGMA) and cultivated for 24 h. As a control for maximal inhibition of ectopic methylation activity, non-transfected KYSE-150 cells were used. Cells were grown in 49% RPMI 1640 with 49% Ham's F12 media supplemented with 2% heat inactivated fetal calf serum (FCS). […] After 5 washes with PBS, the fluorescence in each well was measured on an Odyssey (LI-COR) scanner at 800 nm (p53K370me1 signal; 764 nm excitation) and 700 nm (DRAQ5 signal; 683 nm excitation). Fluorescence intensity was quantified and normalized to background and DRAQ5 signals. IC50 values were calculated by fitting the normalized inhibition data to a 4-parameter logistic equation (Minimum, Maximum, IC50, Hill; Y=Max+(Min−Max)/(1+(X/IC50)Hill)) for each tested compound. […] Ci (maximal inhibition) was defined as the signal measured for non SMYD2 overexpressing KYSE150 cells.
In test [2] the target is T1, SMYD2. Nature of the test: Scintillation Proximity Assay (SPA) for detection of SMYD2 enzymatic inhibition. The class given is biochemical. The following applies: read-out: IC50 [mol/l] (SPA Assay). On the procedure: 1.1 Scintillation Proximity Assay (SPA) for Detection of SMYD2 Enzymatic Inhibition
The SMYD2 full length enzyme was produced in-house by expression (with an N-terminal 6×His tag) in E. coli and purification by affinity chromatography on a Ni-NTA Sepharose column followed by a size exclusion chromatography step on a Superdex 200 16/60 column (GE Healthcare).
To this end, 100-fold concentrated compound solutions (in DMSO) were previously prepared by serial dilution (1:3.4) of 2 mM stocks in a clear low volume 384-well source microtiter plate (Greiner Bio-One), from which 50 nl of compound solutions were transferred into a white low volume test microtiter plate from the same supplier. […] The samples were then incubated for 15 min at 22° C. to allow pre-equilibration of the putative enzyme-inhibitor complexes before the start of the methylation reaction, which was initiated by the addition of 2.5 μl 2-fold concentrated solution (in assay buffer) of titrated S-Adenosyl-L-Methionine (3H-SAM, Perkin Elmer, final concentration: 60 nM) and p53 Peptide substrate (final concentration: 1.0 μM). The resulting mixture (5 μl final volume) was shortly centrifuged (2 min., 1500 rpm) and incubated at 22° C. during 30 min. Thereupon the reaction was stopped by adding 3 μl of Streptavidin PS SPA imaging beads (Perkin Elmer, final concentration of 3.12 μg/μl) and “cold” SAM (AK Scientific, 25 μM final concentration) for non-specific binding reduction. Plates containing the stopped reaction were sealed with transparent adhesive foil (Perkin Elmer), centrifuged (2 min., 1500 rpm), and further incubated for—at least—1 h at RT (or overnight at 4° C.) in order to allow the SPA signals to develop. […] IC50 values were calculated by fitting the normalized inhibition data to a 4-parameter logistic equation using the “Screener” analysis software from Genedata.
In general terms: Scintillation proximity formats need no separation of bound from free tracer.

Setting [3] is: methylation of biotinylated p53 Peptide, 3H-SAM, full length SMYD2.

T1 sequence (Q9NRG4 whole entry): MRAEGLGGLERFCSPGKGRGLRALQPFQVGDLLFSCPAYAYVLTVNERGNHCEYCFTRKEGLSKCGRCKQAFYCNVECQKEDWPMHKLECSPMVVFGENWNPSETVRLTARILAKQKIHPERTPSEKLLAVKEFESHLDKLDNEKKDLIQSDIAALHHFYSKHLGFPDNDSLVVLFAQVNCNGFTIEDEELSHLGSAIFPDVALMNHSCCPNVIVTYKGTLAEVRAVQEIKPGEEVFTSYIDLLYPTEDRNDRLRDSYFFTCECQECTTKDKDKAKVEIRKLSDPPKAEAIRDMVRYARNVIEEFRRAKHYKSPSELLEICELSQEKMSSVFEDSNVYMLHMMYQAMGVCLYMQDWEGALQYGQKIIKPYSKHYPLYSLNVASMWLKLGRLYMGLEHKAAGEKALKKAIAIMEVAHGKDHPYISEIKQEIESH

For `CCN(C(=O)CO)C1CN(/C(=N\C#N)Nc2ccc(Cl)c(OC(F)F)c2)N=C1c1ccc(Cl)c(Cl)c1` (racemic) [Example 11, Rac-N-[1-{N-[4-chloro-3-(difluoromethoxy)phenyl]-N′-cyanocarbamimidoyl}-3-(3,4-dichlorophenyl)-4,5-dihydro-1H-pyrazol-4-yl]-N-ethyl-2-hydroxyacetamide], the IC50 was found to be 376 nM at SMYD2 [1] and 144 nM at SMYD2 [2] (setting [3]).
For `CCN(C(=O)[C@H](N)C(C)C)C1CN(/C(=N\C#N)Nc2cccc(OC(F)(F)F)c2F)N=C1c1ccc(Cl)c(Cl)c1` (stereo partly drawn) [Example 40, N-[1-{N′-Cyano-N-[2-fluoro-3-(trifluoromethoxy)phenyl]carbamimidoyl}-3-(3,4-dichlorophenyl)-4,5-dihydro-1H-pyrazol-4-yl]-N-ethyl-D-valinamide], the IC50 at SMYD2 [2] (setting [3]) is 418 nM.
As for `CCN(C(=O)[C@H](N)C(C)C)C1CN(/C(=N\C#N)Nc2cccc(OC(F)F)c2)N=C1c1ccc(Cl)c(Cl)c1` (stereo partly drawn) [Example 41, N-[1-{N′-Cyano-N-[3-(difluoromethoxy)phenyl]carbamimidoyl}-3-(3,4-dichlorophenyl)-4,5-dihydro-1H-pyrazol-4-yl]-N-ethyl-D-valinamide], the IC50 at SMYD2 [2] (setting [3]) turned out to be 73.5 nM.
Regarding `CCN(C(=O)CO)C1CN(/C(=N\C#N)Nc2cccc(OC(F)F)c2)N=C1c1ccc(Cl)cc1` (stereo not drawn) [WO 2006/072350 Example 67 more active isomer, reference compound], the IC50 at SMYD2 [2] (comparison example versus WO 2006/072350) worked out at 548 nM.
